Source: publication PMC6199744, “Development of Chemical Proteomics for the Folateome and Analysis of the Kinetoplastid Folateome” (ACS Infectious Diseases, 2018)
Values joined by “and” are separate entries in the source; they are usually repeats but may differ in a detail not shown here. Equal values may be shown once. Read-outs that look alike come from different tables or passages of the source.

System: L. major lysate proteins
Experiment: Multitargeted bead mixture chemoproteomics, single concentration competition, proteome-wide
Type: binding
Conditions: for fold change / fold change relative to vehicle control: vehicle control = 1; for fold change relative to vehicle control: competition with free ligand

With `CCCCCCOc1cccc(Cc2cnc(N)nc2N)c1` [compound 2] the “fold change vs vehicle control” value was 1.17 and 1.18 and 1.07 and 1.04, the fold change (LINJ.05.0500 ATPASE ALPHA SUBUNIT) was 1.11 and the fold change (LINJ.36.4570 PROTEASOME REGULATORY ATPASE SUBUNIT) was 0.65. It also gave a fold change (LMJF.10.0510 GLYCEROL-3-PHOSPHATE DEH[…] ], GLYCOSOMAL) of 1.02, a fold change (LMJF.16.1610 PROHIBITIN) of 1.14 and a fold change (LMJF.18.1370 HEAT SHOCK PROTEIN, PUTATIVE) of 1.03. For the same compound, the fold change (LMJF.19.0300 RNA BINDING PROTEIN, PUTATIVE) was 0.93, the fold change (LMJF.21.0760 […]-ATP-ASE SUBUNIT 5, PUTATIVE) was 0.91 and the fold change (LMJF.22.0410 HY[…], CONSERVED) was 0.85. It also gave a fold change (LMJF.25.1770 ENOYL-COA REDUCTASE, PUTATIVE) of 1.1, a fold change (LMJF.26.0300 AMINOPEPTIDASE-LIKE PROTEIN) of 0.85 and a fold change (LMJF.26.2560 HY[…], CONSERVED) of 1.08. It also gave a fold change (LMJF.27.1810 GLYCOSOMAL PHOSPHOENOLPYRUVATE CARBOXYKINASE, PUTATIVE) of 1.17, a fold change (LMJF.28.0490 PROPIONYL-COA CARBOXYLASE BETA CHAIN, PUTATIVE) of 0.63 and a fold change (LMJF.29.0940 HY[…], CONSERVED) of 1.21. The fold change (LMJF.29.1310 CARNITINE/CHOLINE ACETYLTRANSFERASE, PUTATIVE) was 1.04, the fold change (LMJF.29.1470 HY[…], CONSERVED) was 1.11 and the fold change (LMJF.29.2440 HYPOTHETICAL PROTEIN, CONSERVED) was 1. For the same compound, the fold change (LMJF.30.2350 SPHINGOSINE 1-PHOSPHATE LYASE) was 1.12, the fold change (LMJF.30.2970 GLYCERALDEHYDE 3-PHOSPHATE DEHYDROGENASE, GLYCOSOMAL) was 1.11 and the fold change (LMJF.30.3390 CAS/CSE/IMPORTIN DOMAIN PROTEIN, PUTATIVE) was 0.9. The fold change (LMJF.31.2650 ACETOIN DEHYDROGENASE E3 COMPONENT-LIKE PROTEIN) was 1.02, the fold change (LMJF.31.2970 ACETYL-COA CARBOXYLASE, PUTATIVE) was 0.91 and the fold change (LMJF.33.1030 HYPOTHETICAL PROTEIN, CONSERVED) was 0.95. For the same compound, the fold change (LMJF.35.5040 polyadenylate-binding protein 1) was 1.22, the fold change (LMJF.35.5250 ALPHA-1,2-MANNOSYLTRANSFERASE, PUTATIVE) was 0.99 and the fold change (LMJF.36.5100 HY[…], CONSERVED) was 1.03. For the same compound, the fold change (LMJF.[…] RIBOSOMAL PROTEIN S7, PUTATIVE) was 1.35, the “fold change vs vehicle control” value (protein LINJ.03.0940 HY[…], CONSERVED) was 1.19 and the “fold change vs vehicle control” value (protein LINJ.09.0030 HYPOTHETICAL PROTEIN, CONSERVED) was 0.91. For the same compound, the “fold change relative to vehicle control” value (protein LINJ.11.0780 40S RIBOSOMAL PROTEIN S21, PUTATIVE) was 1.25, the fold change (protein LINJ.13.0990 […] SUBUNIT 2, PUTATIVE) was 1.04 and the “fold change vs vehicle control” value (protein LINJ.13.1460 ALPHA TUBULIN) was 1.06. For the same compound, the fold change (protein LINJ.15.0090 HEAT SHOCK PROTEIN HSLVU, ATPASE SUBUNIT HSLU, PUTATIVE) was 1.01, the “fold change relative to vehicle control” value (protein LINJ.16.1380 CYTOCHROME C, PUTATIVE) was 1.41 and the “fold change vs vehicle control” value (protein LINJ.19.0300 RNA BINDING PROTEIN) was 1.2. The fold change (protein LINJ.20.0630 CYTIDINE TR[…], PUTATIVE) was 1.24, the “fold change relative to vehicle control” value (protein LINJ.20.1390 COATOMER BETA SUBUNIT, PUTATIVE) was 1.31 and the “fold change vs vehicle control” value (protein LINJ.21.1310 40S RIBOSOMAL PROTEIN S23, PUTATIVE) was 1.12. For the same compound, the “fold change vs vehicle control” value (protein LINJ.23.1680 HY[…], CONSERVED) was 1.11, the “fold change vs vehicle control” value (protein LINJ.25.1170 […] OXIDASE VII, PUTATIVE) was 1.03 and the “fold change relative to vehicle control” value (protein LINJ.25.1220 RIBOSOMAL PROTEIN S25) was 1.24. The “fold change vs vehicle control” value (protein LINJ.26.1080 HY[…], CONSERVED) was 1.11, the “fold change vs vehicle control” value (protein LINJ.27.1140 HY[…], CONSERVED) was 1.05 and the “fold change vs vehicle control” value (protein LINJ.28.1100 RIBOSOMAL PROTEIN S20, PUTATIVE) was 1.04. The “fold change relative to vehicle control” value (protein LINJ.28.1940 REPLICATION FACTOR A, 51KDA SUBUNIT, PUTATIVE) was 1.28, the fold change (protein LINJ.31.2350 ADP-RI[…], PUTATIVE) was 1.11 and the “fold change vs vehicle control” value (protein LINJ.34.0670 […]-ATP-ASE SUBUNIT 11, PUTATIVE) was 1.17. For the same compound, the fold change (protein LINJ.35.0410 40S RIBOSOMAL PROTEIN S3A, PUTATIVE) was 1.2, the “fold change relative to vehicle control” value (protein LINJ.35.0780 CBS DOMAIN PROTEIN, CONSERVED) was 0.96 and the “fold change vs vehicle control” value (protein LINJ.36.0510 HY[…], CONSERVED) was 1.08. The “fold change vs vehicle control” value (protein LINJ.36.3940 40S RIBOSOMAL PROTEIN S27-1, PUTATIVE) was 0.95, the fold change (protein LINJ.36.4180 HS1VU COMPLEX PROTEOLYTIC SUBUNIT-LIKE) was 0.97 and the fold change (protein LINJ.36.7350 […] OXIDASE SUBUNIT I) was 1.03. For the same compound, the fold change (protein LMJF.01.0520 LONG-CHAIN-FATTY-ACID-COA LIGASE, PUTATIVE) was 0.98, the “fold change vs vehicle control” value (protein LMJF.02.0460 HY[…], CONSERVED) was 1.06 and the “fold change vs vehicle control” value (protein LMJF.03.0230 LONG CHAIN FATTY ACYL COA SYNTHETASE, PUTATIVE) was 1.18. For the same compound, the “fold change vs vehicle control” value (protein LMJF.03.0630 HYPOTHETICAL PROTEIN, CONSERVED) was 1, the fold change (protein LMJF.05.0780 HY[…], CONSERVED) was 1.13 and the fold change (protein LMJF.06.0010 HISTONE H4) was 1.16. The fold change (protein LMJF.06.0140 PROTEASOME BETA 6 SUBUNIT, PUTATIVE) was 0.93, the fold change (protein LMJF.06.0650 […], PUTATIVE) was 1.08 and the “fold change vs vehicle control” value (protein LMJF.08.0510 RIBOSE-PHOSPHATE PYROPHOSPHOKINASE, PUTATIVE) was 1.01. For the same compound, the “fold change vs vehicle control” value (protein LMJF.08.0550 TRANSLATION INITIATION FACTOR-LIKE PROTEIN) was 1.1, the “fold change vs vehicle control” value (protein LMJF.08.1100 HY[…], CONSERVED) was 1.08 and the “fold change relative to vehicle control” value (protein LMJF.09.1120 MITOCHONDRIAL RNA BINDING PROTEIN 2,MRP2, GBP25) was 1. The “fold change vs vehicle control” value (protein LMJF.09.1260 HY[…], CONSERVED) was 1.11, the fold change (protein LMJF.10.1010 NUCLEOSIDE PHOSPHORYLASE-LIKE PROTEIN) was 0.94 and the fold change (protein LMJF.10.1240 HYPOTHETICAL PROTEIN, CONSERVED) was 0.79. The “fold change vs vehicle control” value (protein LMJF.11.0130 NGG1 I[…] 3-LIKE PROTEIN) was 1.06, the “fold change vs vehicle control” value (protein LMJF.11.0240 […] 7 SUBUNIT, PUTATIVE) was 1.02 and the fold change (protein LMJF.11.1050 PRETRA[…], ALPHA SUBUNIT, PUTATIVE) was 1.27. For the same compound, the “fold change vs vehicle control” value (protein LMJF.11.1110 60S RIBOSOMAL PROTEIN L28, PUTATIVE) was 1.71, the “fold change vs vehicle control” value (protein LMJF.12.0210 […] […]1L8 3, PUTATIVE) was 0.96 and the “fold change vs vehicle control” value (protein LMJF.12.0280 ORNITHINE DECARBOXYLASE, PUTATIVE) was 0.92. The “fold change vs vehicle control” value (protein LMJF.13.0450 HYPOTHETICAL PROTEIN, CONSERVED) was 0.94, the “fold change vs vehicle control” value (protein LMJF.13.0870 MIT[…] ALPHA SUBUNIT, PUTATIVE) was 1.12 and the “fold change vs vehicle control” value (protein LMJF.14.0130 INOSINE-GUANINE NUCLEOSIDE HYDROLASE, PUTATIVE) was 1. For the same compound, the fold change (protein LMJF.14.0310 PROTEASOME ALPHA 3 SUBUNIT, PUTATIVE) was 0.96, the fold change (protein LMJF.14.0650 FATTY ACID ELONGASE, PUTATIVE) was 1.09 and the fold change (protein LMJF.14.0660 FATTY ACID ELONGASE, PUTATIVE) was 1.14. For the same compound, the fold change (protein LMJF.14.0705 FATTY ACID ELONGASE, PUTATIVE) was 0.94, the fold change (protein LMJF.14.0740 FATTY ACID ELONGASE, PUTATIVE) was 1.13 and the “fold change relative to vehicle control” value (protein LMJF.14.1120 KINESIN K39, PUTATIVE) was 1.12. The “fold change vs vehicle control” value (protein LMJF.15.0230 LYSYL-TRNA SYNTHETASE, PUTATIVE) was 1.06, the “fold change vs vehicle control” value (protein LMJF.15.0280 RIBONUCLEOPROTEIN P18, MIT[…], PUTATIVE) was 1.12 and the fold change (protein LMJF.15.1010 GLUTAMATE DEHYDROGENASE) was 1.12. For the same compound, the “fold change relative to vehicle control” value (protein LMJF.16.0520 HYPOTHETICAL PROTEIN, CONSERVED) was 2.05, the fold change (protein LMJF.16.0540 ASPARTATE […], PUTATIVE) was 1.05 and the “fold change vs vehicle control” value (protein LMJF.16.0950 SUCROSE-PHOSPHATE SYNTHASE-LIKE PROTEIN) was 1.27. For the same compound, the “fold change vs vehicle control” value (protein LMJF.16.0960 HYPOTHETICAL PROTEIN, CONSERVED) was 0.64, the fold change (protein LMJF.16.1180 COATOMER DELTA SUBUNIT-LIKE PROTEIN) was 1.05 and the fold change (protein LMJF.17.0010 HYPOTHETICAL PROTEIN, CONSERVED) was 0.79. For the same compound, the “fold change vs vehicle control” value (protein LMJF.18.0510 ACONITASE, PUTATIVE) was 1.1, the “fold change vs vehicle control” value (protein LMJF.18.0890 RAB7 GTP BINDING PROTEIN, PUTATIVE) was 0.93 and the fold change (protein LMJF.18.1130 RAS-RELATED PROTEIN RAB-5, PUTATIVE) was 0.97. The fold change (protein LMJF.19.1120 […]-ATP-ASE SUBUNIT, PUTATIVE) was 1.02, the “fold change vs vehicle control” value (protein LMJF.19.1160 HY[…], CONSERVED) was 1.14 and the “fold change vs vehicle control” value (protein LMJF.19.1530 PEPT[…]-LIKE PROTEIN) was 1.05. For the same compound, the fold change (protein LMJF.20.0100 PHOSPH[…] C, GLYCOSOMAL) was 1.08, the “fold change vs vehicle control” value (protein LMJF.21.0720 HY[…], CONSERVED) was 1.29 and the fold change (protein LMJF.21.1250 ADENYLATE KINASE, PUTATIVE) was 0.9. The fold change (protein LMJF.21.1555 HY[…], CONSERVED) was 1.14, the fold change (protein LMJF.21.1580 HY[…], UNKNOWN FUNCTION) was 1.22 and the “fold change vs vehicle control” value (protein LMJF.21.1700 […] 2 SUBUNIT, PUTATIVE) was 1.01. For the same compound, the fold change (protein LMJF.22.0230 AMINO ACID PERMEASE, PUTATIVE) was 1.51 and the fold change (protein LMJF.22.0570 PROTEASOME REGULATORY ATPASE SUBUNIT 1, PUTATIVE) was 1.1.
